Values of other authors in patent US11485730B2, “Compositions and methods for the treatment of fungal infections” (Cellix Bio Private Limited, priority 2016, dated 2022).
Read-outs that look alike come from different tables or passages of the source.

How the values were obtained:
[1] = system: oral streptococci and periodontopathogens
[2] = among the long-chain fatty acids
[3] = system: various oral pathogenic microorganisms

Compound: CCCCC/C=C\C/C=C\C/C=C\CCCCC(=O)O [GLA, gamma linoleic acid]
- bactericidal concentration ([1]; n-6 fatty acids): 25 µg/mL
- antimicrobial activity [2]: greatest antimicrobial activity
- anti-microbial activity ([3]; in vitro studies, various oral pathogenic microorganisms): significant anti-microbial activity
- antimicrobial activities ([3]; various oral microorganisms, including S. mutans, A. actinomycetemcomitans, C. albicans, P. gingivalis, F. nucleatum, S. gordonii): antimicrobial activities

Compound: CCCCC/C=C\C/C=C\C/C=C\C/C=C\CCCC(=O)O [arachidonic acid]
- antimicrobial activity [2]: greatest antimicrobial activity

Compound: CCCCC/C=C\C/C=C\CCCCCCCC(=O)O [linoleic acid]
- activity against C. albicans (C. albicans): < 40%
- MIC (Candida Species): 450 µM
- MIC (Candida Species; printed as corresponding to 0.45 μmoles/ml): 0.13 mg/L
- bactericidal concentration [1]: 25 µg/mL
- antimicrobial activity [2]: greatest antimicrobial activity

Compound: CCCCCCCCCCCCCCCC(=O)O [palmitic acid]
- antimicrobial activity [2]: greatest antimicrobial activity

Compound: CCCCCC/C=C\CCCCCCCC(=O)O [palmitoleic acid]
- antimicrobial activity [2]: greatest antimicrobial activity
